Experimental data published in patent US7989625B2, “Thienopyridines” (Merck Patent GmbH, priority 2005, dated 2011).

Target: T1, human HSP90α (Homo sapiens, UniProt P07900)
T1 construct: host or cells: E. coli
Assay: radioligand filter binding test, competition with [3H]17AAG for HSP90
Details: recombinant human HSP90α, [3H]17AAG 0.08 μM, 22° C., 30 min
Description: The binding of geldanamycin or 17-allylamino-17-demethoxygeldanamycin (17AAG) to HSP90 and competitive inhibition thereof can be utilised in order to determine the inhibitory activity of the compounds according to the invention (Carreras et al. 2003, Chiosis et al. 2002).
In the specific case, a radioligand filter binding test is used. The radioligand used here is tritium-labelled 17-allylaminogeldanamycin, [3H]17AAG. This filter binding test allows a targeted search for inhibitors which interfere with the ATP binding site.
Recombinant human HSP90α (E. coli expressed, 95% purity); [3H]17AAG (17-allylaminogeldanamycin, [allylamino-2,3-^3H. Specific activity: 1.11×10^12 Bq/mmol (Moravek, MT-1717);
HEPES filter buffer (50 mM HEPES, pH 7.0, 5 mM MgCl2, BSA 0.01%) Multiscreen FB (1 μm) filter plate (Millipore, MAFBNOB 50).
The 96-well microtitre filter plates are firstly irrigated and coated with 0.1% of polyethylenimine.
The test is carried out under the following conditions: • Reaction temperature 22° C. • Reaction time: 30 min., shaking at 800 rpm • Test volume: 50 μl • Final Concentrations: • 50 mM HEPES HCl, pH 7.0, 5 mM MgCl2, 0.01% (w/v) BSA • HSP90:1.5 μg/assay • [3H]17AAG: 0.08 μM.
At the end of the reaction, the supernatant in the filter plate is removed by suction with the aid of a vacuum manifold (Multiscreen Separation System, Millipore), and the filter is washed twice.
The filter plates are then measured in a beta counter (Microbeta, Wallac) with scintillator (Microscint 20, Packard).
“% of control” is determined from the “counts per minutes” values and the IC-50 value of a compound is calculated therefrom.

In order of falling IC50:
1. COc1ccc(-c2c(C#N)c(N)nc3sc(C(N)=O)c(N)c23)cc1NC(=O)c1ccccc1C(F)(F)F [Compound A36, 2-aminocarbonyl-3,6-diamino-5-cyano-4-[4-methoxy-3-(2-trifluoromethylbenzoylamino)phenyl]thieno[2,3-b]pyridine]  11 µM
2. COc1ccc(-c2c(C#N)c(N)nc3sc(C(N)=O)c(N)c23)cc1NC(=O)c1ccc(C(F)(F)F)cc1 [Compound A35, 2-aminocarbonyl-3,6-diamino-5-cyano-4-[4-methoxy-3-(4-trifluoromethylbenzoylamino)phenyl]thieno[2,3-b]pyridine]  5.9 µM
3. COc1ccc(-c2c(C#N)c(N)nc3sc(C(N)=O)c(N)c23)cc1NC(=O)C(C)C [Compound A38, 2-aminocarbonyl-3,6-diamino-5-cyano-4-[4-methoxy-3-(prop-2-ylcarbonylamino)phenyl]thieno[2,3-b]pyridine]  5.5 µM
4. COc1ccc(-c2c(C#N)c(N)nc3sc(C(N)=O)c(N)c23)cc1NC(=O)c1ccncc1 [Compound A37, 2-aminocarbonyl-3,6-diamino-5-cyano-4-[4-methoxy-3-(pyridin-4-ylcarbonylamino)phenyl]thieno[2,3-b]pyridine]  1.9 µM
